A value given as a limit tells only on which side of the number the result lay.

From article PMC3117834 (PLoS ONE, 2011) come the findings set out here.

Holding throughout (format): biochemical
For assay [1], the target named is T1, Hog1 (Saccharomyces cerevisiae, UniProt P32485, T100G).
T1 construct: pGEX-4T1 E. coli version also made
Nature of the assay: […] kinase assay, Sic1 phosphorylation, autoradiography. To be noted: in vitro-activated Hog1as.

Assay [2] addresses T2, Hog1 (Saccharomyces cerevisiae, UniProt P32485).
T2 construct: pGEX-4T1 E. coli version also made
T2 sequence (P32485 2-435): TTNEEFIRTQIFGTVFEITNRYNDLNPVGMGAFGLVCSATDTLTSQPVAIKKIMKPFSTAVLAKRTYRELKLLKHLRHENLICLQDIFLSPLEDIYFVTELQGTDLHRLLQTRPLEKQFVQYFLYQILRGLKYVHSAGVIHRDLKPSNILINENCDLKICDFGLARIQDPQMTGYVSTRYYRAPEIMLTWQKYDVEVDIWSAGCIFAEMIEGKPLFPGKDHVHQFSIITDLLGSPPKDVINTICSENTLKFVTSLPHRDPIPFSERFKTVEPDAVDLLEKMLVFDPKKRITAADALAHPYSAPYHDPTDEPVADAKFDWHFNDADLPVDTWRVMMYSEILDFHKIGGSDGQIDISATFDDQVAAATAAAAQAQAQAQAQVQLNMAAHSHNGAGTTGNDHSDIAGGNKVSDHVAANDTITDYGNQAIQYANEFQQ
The assay is described as above.

Assay [3] addresses T1, Hog1. Described as above.
Assay [4] deals with T3, Pbs2 (Saccharomyces cerevisiae, UniProt P08018, M435A).
T3 construct: GST fusion (pGEX-4T1) from E. coli DH5alpha
T3 sequence (P08018 1-668 M435A): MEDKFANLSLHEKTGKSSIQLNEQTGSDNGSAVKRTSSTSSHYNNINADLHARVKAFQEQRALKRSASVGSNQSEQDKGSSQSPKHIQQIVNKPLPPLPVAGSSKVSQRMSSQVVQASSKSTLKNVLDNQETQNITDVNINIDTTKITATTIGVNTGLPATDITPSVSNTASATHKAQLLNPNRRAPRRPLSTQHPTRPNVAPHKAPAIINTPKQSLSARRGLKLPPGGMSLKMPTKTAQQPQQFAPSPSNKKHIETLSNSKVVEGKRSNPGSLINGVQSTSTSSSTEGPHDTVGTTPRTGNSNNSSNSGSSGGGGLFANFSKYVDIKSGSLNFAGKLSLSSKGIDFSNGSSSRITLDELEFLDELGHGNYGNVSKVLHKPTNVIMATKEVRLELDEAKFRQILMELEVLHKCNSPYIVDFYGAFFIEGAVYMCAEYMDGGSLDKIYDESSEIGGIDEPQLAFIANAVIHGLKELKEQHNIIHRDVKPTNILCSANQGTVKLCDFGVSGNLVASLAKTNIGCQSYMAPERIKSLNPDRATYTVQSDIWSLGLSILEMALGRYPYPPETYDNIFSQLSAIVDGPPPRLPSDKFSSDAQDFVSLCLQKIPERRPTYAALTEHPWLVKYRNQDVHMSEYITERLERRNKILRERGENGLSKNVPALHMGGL
Description: […] kinase assay, Hog1 phosphorylation, autoradiography.

Assay [5] concerns the target T1, Hog1. Description: […] kinase assay, Sic1 phosphorylation, autoradiography. The source holds these as a separate data set.
For assay [6], the target named is T3, Pbs2. Nature of the assay: […] kinase assay, Hog1 phosphorylation, autoradiography. To be noted: [gamma-32P]-phenethyl-ATP as phosphodonor; GST-Hog1 substrate; pH 8.0; 30 °C.

T1 sequence (P32485 2-435 T100G): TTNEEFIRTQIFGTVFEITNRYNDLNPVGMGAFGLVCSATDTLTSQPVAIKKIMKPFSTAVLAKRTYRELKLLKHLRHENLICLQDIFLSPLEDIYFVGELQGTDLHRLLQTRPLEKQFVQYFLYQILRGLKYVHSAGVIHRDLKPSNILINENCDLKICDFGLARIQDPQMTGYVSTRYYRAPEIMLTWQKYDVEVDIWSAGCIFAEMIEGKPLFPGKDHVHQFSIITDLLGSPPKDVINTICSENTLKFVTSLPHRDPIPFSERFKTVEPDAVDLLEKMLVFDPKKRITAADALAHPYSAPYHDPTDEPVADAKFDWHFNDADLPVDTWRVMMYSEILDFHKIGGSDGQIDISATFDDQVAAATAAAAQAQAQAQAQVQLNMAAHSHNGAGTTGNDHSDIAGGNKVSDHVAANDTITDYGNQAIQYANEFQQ

For `Nc1ncnc2c1c(C#Cc1ccccc1)nn2CCO` [7a, 2-(4-amino-3-(phenylethynyl)-1H-pyrazolo[3,4-d]pyrimidin-1-yl)etanol], the “32P kinase assay, Sic1 phosphorylation, autoradiography” value in assay [1] is “in vitro these compounds were able to inhibit Hog1as as efficiently as 6a”.

One may read the inhibition as the relative decrease from the control value, in per cent. `CC(C)n1nc(-c2ccc(F)cc2)c2c(N)ncnc21` [5b, 3-(4-Fluorophenyl)-1-isopropyl-1H-pyrazolo[3,4-d]pyrimidin-4-amine] yielded an inhibition at 5 µM in assay [2] of 94%.

Regarding `Nc1ncnc2c1c(C#Cc1ccccc1)nn2CC(O)CO` (stereo not shown) [7b, 3-(4-amino-3-(phenylethynyl)-1H-pyrazolo[3,4-d]pyrimidin-1-yl)propane-1,2-diol], the “32P kinase assay, Sic1 phosphorylation, autoradiography” value in assay [1] is recorded as “in vitro these compounds were able to inhibit Hog1as as efficiently as 6a”.

In assay [3], `CC(C)n1nc(C#Cc2ccc(Cl)cc2)c2c(N)ncnc21` [6c, 3-((4-chlorophenyl)ethynyl)-1-isopropyl-1H-pyrazolo[3,4-d]pyrimidin-4-amine] had an inhibition at 5 µM above 89%.

The IC50 is the point on the concentration scale where inhibition reaches its midpoint. As for `CC(C)(C)n1nc(Cc2cccc3ccccc23)c2c(N)ncnc21` [compound 9, 1-NM-PP1], the results for the IC50 in assay [4] and in assay [5] were 7.54 ± 0.25 nM and 9.47 ± 0.38 nM, respectively.

As for `CC(C)n1nc(C#Cc2ccccc2)c2c(N)ncnc21` [6a, 1-Isopropyl-3-(phenylethynyl)-1H-pyrazolo[3,4-d]pyrimidin-4-amine], the IC50 in assay [4] was 4.02 ± 0.26 nM; in assay [5] it was 37 ± 2.72 nM.

Turning to `CC(C)n1nc(C#Cc2ccc(F)cc2)c2c(N)ncnc21` [6b, 3-((4-fluorophenyl)ethynyl)-1-isopropyl-1H-pyrazolo[3,4-d]pyrimidin-4-amine], the inhibition at 5 µM in assay [3] is above 89%. In addition, the “% inhibition at 5 μM” value in assay [6] is reported as “Pbs2as was inhibited by all the compounds in vitro”.
